In this test the test system is eIF2-GTP-Met-tRNAi ternary complex. Briefly: Ternary complex assay (dual luciferase, firefly/renilla ratio) in stable KLN-tTA/pBISA-DL(ATF-4) cells; HTS and hit confirmation. The class given is cell-based, mouse. On the set-up: Activity 10 uM / Activity 2.5 uM / Activity 5 uM: unit not given here. The note with it: confirmed hits of the screen (Table 5); for Activity 2.5 uM: compound at 2.5 uM; for Activity 10 uM: compound at 10 uM; for Activity 5 uM: compound at 5 uM.

From patent US9932300B2, “N,N′-diarylurea compounds and N,N′-diarylthiourea compounds as inhibitors of translation initiation” (President and Fellows of Harvard College, priority 2009, dated 2018) come the findings set out here.

For the molecule `O=C(Nc1ccccc1F)C(Br)C(Br)c1ccccc1` (stereo not shown) [Compound 205548], the “Activity 2.5 uM” value turned out to be 2.94 and the “Activity 10 uM” value is 4.01.
In the case of `CSc1ccc(NC(=O)Nc2cccc(F)c2)cc1` [Compound 205787], the “Activity 2.5 uM” value was 1.79 and the “Activity 10 uM” value is 4.39.
On the same counts, the results for `CSc1ccc(NC(=O)Nc2ccccc2F)cc1` [Compound 205789] are 3.99 and 7.26.
On to `CO[C@H]1/C=C/O[C@@]2(C)Oc3c(C)c(O)c4c(O)c(c(/C=N/N5CC(C)(C)N(Cc6ccccc6)CC5(C)C)c(O)c4c3C2=O)NC(=O)/C(C)=C\C=C\[C@H](C)[C@H](O)[C@@H](C)[C@@H](O)[C@@H](C)[C@H](OC(C)=O)[C@@H]1C` [Compound 208394], for which the “Activity 5 uM” value was 1.5 and the “Activity 10 uM” value was determined as 13.4.
On the same counts, the results for `COc1ccc(N=Nc2cc(C)c(C)cc2O)cc1` [Compound 209832] are 9.509 and 4.7795.
`O=[N+]([O-])c1ccc(OCc2ccc(CBr)cc2)c(Cl)c1` [Compound 212379]: the “Activity 2.5 uM” value is listed as 2.28 and the “Activity 10 uM” value is reported as 4.4.
In the case of `Cc1ccnc(NC(=O)Nc2cc(F)ccc2F)c1` [Compound 213710], the “Activity 5 uM” value was 4.183 and the “Activity 10 uM” value is reported as 5.091.
On the same counts, the results for `O=C(Nc1ccc(F)cc1)OCC1CC2C=CC1C2` (stereo not shown) [Compound 213848] are 4.586 and 3.5355.
On the same counts, the results for `O=C(Nc1ccc(CCO)cc1)Nc1ccccc1F` [Compound 214004] are 5.299 and 6.0655.
For the molecule `O=C(Nc1ccc2ccccc2c1)c1cccc(F)c1` [Compound 214029], the “Activity 5 uM” value came to 5.245 and the “Activity 10 uM” value worked out at 6.8665.
On the same counts, the results for `O=C(Nc1ccc2ccccc2c1)c1ccc(F)cc1` [Compound 214041] are 6.705 and 8.374.
On the same counts, the results for `CCCCCCOC(=O)Nc1cccc(O)c1` [Compound 222612] are 4.521 and 2.88.
On the same counts, the results for `O=C(O)c1ccc(/C=N\Nc2ccccc2)cc1` [Compound 227290] are 5.935 and 6.8065.
Consider `O=S(=O)(Cc1ccccc1)CC(Br)CBr` (stereo not shown) [Compound 229344], for which the “Activity 2.5 uM” value is 1.28 and the “Activity 10 uM” value is given as 4.4.
Consider `O=C1c2ccccc2C(=O)c2c1ccc1c2CCCC1` [Compound 230359], for which the “Activity 5 uM” value was 4.465 and the “Activity 10 uM” value is 8.3955.
On the same counts, the results for `CN(C)c1ccc(/C=N/Nc2ccccc2)cc1` [Compound 230415] are 2.468 and 3.3005.
For the molecule `[C-]#[N+]C1CCCCC1.[C-]#[N+]C1CCCCC1.[C-]#[N+]C1CCCCC1.[C-]#[N+]C1CCCCC1.[C-]#[N+]C1CCCCC1.[C-]#[N+]C1CCCCC1.[Mn]` [Compound 231980], the “Activity 5 uM” value is listed as 4.1 and the “Activity 10 uM” value was determined as 3.8.
Turning to `COc1c(O)c2c(=O)cc3c4c5c(cc(=O)c6c(O)c(OC)c(CC(C)O)c(c(c1CC(C)O)c24)c65)OCO3` (stereo not shown) [Compound 234486], the “Activity 2.5 uM” value is recorded as 10.
With `[Br][Ni][Br].c1ccc(CN2CCN(Cc3ccccc3)CCN(Cc3ccccc3)CCN(Cc3ccccc3)CC2)cc1` [Compound 236237], the “Activity 2.5 uM” value is reported as 1.78 and the “Activity 10 uM” value is recorded as 57.44.
On to `CN(C)c1ccc(C(=N)Cc2ccc3ccccc3n2)cc1` [Compound 240575], for which the “Activity 5 uM” value is 6.23 and the “Activity 10 uM” value was 7.0215.
On the same counts, the results for `CN(C)c1ccc(C(O)Cc2ccc3ccccc3n2)cc1` (stereo not shown) [Compound 240576] are 5.47 and 6.2885.
`CN(C)c1ccc(C(=O)Cc2ccc3ccccc3n2)cc1` [Compound 240577]: the “Activity 2.5 uM” value was 2.68 and the “Activity 10 uM” value stood at 4.63.
Take `CN(C)c1ccc(-c2nc3ccccn3c2N)cc1` [Compound 240724]: the “Activity 5 uM” value is 3.594 and the “Activity 10 uM” value is given as 4.257.
On the same counts, the results for `CN(C)c1ccc(N=Nc2ccc(C(=O)Cl)cc2)cc1` [Compound 240870] are 6.352 and 7.2395.
As to `C=C1C(=O)OC2CCCCC3OC3C12` (stereo not shown) [Compound 258618], the “Activity 2.5 uM” value is 0.85 and the “Activity 10 uM” value was 3.2.
On the same counts, the results for `[O-][n+]1c2ccccc2nn1-c1ccc(N(CCCl)CCCl)cc1` [Compound 260514] are 1.94 and 3.87.
As to `CNC(=S)N/N=C/c1nccc(-c2ccccc2)c1C` [Compound 262421], the “Activity 2.5 uM” value came out at 24.56 and the “Activity 10 uM” value was found to be 107.79.
As to `CCCCCCCCCCCCCCCC[N+](C)(C)Cc1ccccc1.[Br-]` [Compound 263517], the “Activity 2.5 uM” value is recorded as 1.39 and the “Activity 10 uM” value is reported as 8.78.
As for `CC(=O)OCC1OC(n2nnc(CCl)c2CCl)C(OC(C)=O)C(OC(C)=O)C1OC(C)=O` (stereo not shown) [Compound 268393], the “Activity 2.5 uM” value is on record as 0.71.
Regarding `CN(C)c1ccc(/C=C/c2ccc3ccccc3[n+]2[O-])cc1` [Compound 268776], the “Activity 5 uM” value was 5.767 and the “Activity 10 uM” value was 5.5035.
On to `Cc1cc(OC(=O)Nc2ccc(Cl)c([N+](=O)[O-])c2)c(Cl)cc1Br` [Compound 270151], for which the “Activity 2.5 uM” value was determined as 1.24 and the “Activity 10 uM” value came out at 3.16.
On the same counts, the results for `COc1cc2c(cc1O)C(=O)c1[nH]c3ccccc3c1CC2` [Compound 271272] are 2.76 and 4.93.
Regarding `O=C(OCC1OC(n2cc[n+]([O-])nc2=O)C(OC(=O)c2ccccc2)C1OC(=O)c1ccccc1)c1ccccc1` (stereo not shown) [Compound 276293], the “Activity 2.5 uM” value was 20.35.
In the case of `O=C(Nc1ncc([N+](=O)[O-])s1)c1cccnc1` [Compound 276393], the “Activity 5 uM” value is given as 6.644 and the “Activity 10 uM” value is 8.706.
`CCOC(=O)[C]1([Hg][CH3])N=NC(C(=O)OC)=C1C(=O)OC` (stereo not shown) [Compound 278352]: the “Activity 2.5 uM” value stood at 3.81.
On the same count and under the same terms, in the case of `Cc1ccc(S(=O)(=O)C(c2ccccc2)C(Br)C(=O)c2ccccc2)cc1` (stereo not shown) [Compound 280894] it was 2.06.
As for `O=C1c2ccccc2C(=O)c2c1oc1c2ccc2ccccc21` [Compound 281986], the “Activity 2.5 uM” value came to 3.11 and the “Activity 10 uM” value came out at 3.37.
Take `Br[CH](Br)[Hg][c]1ccccc1` [Compound 286678]: the “Activity 2.5 uM” value is recorded as 1.72.
`CCCCC(OC(=O)c1ccccc1)c1cc(OC(=O)c2ccccc2)c2c(c1OC(=O)c1ccccc1)CC(C)=C(C)C2` (stereo not shown) [Compound 287407]: the “Activity 2.5 uM” value came out at 3.93 and the “Activity 10 uM” value stood at 36.2.
On the same counts, the results for `CC1=C(C)CC2C(=O)C(C(O)CC(C)C)=CC(=O)C2C1` (stereo not shown) [Compound 287413] are 0.68 and 17.06.
Consider `CCN1/C(=C/C=C2\CCC(/C=C/c3sc4ccc(Cl)cc4[n+]3CC)=C2N(c2ccccc2)c2ccccc2)Sc2ccc(Cl)cc21.[O-][Cl+3]([O-])([O-])[O-]` [Compound 290436], for which the “Activity 5 uM” value came to 3.8 and the “Activity 10 uM” value was 20.4.
